This note sets out measurements from EP4796530A1 (Biocells (Beijing) Biotech Co., Ltd., priority 2023, dated 2025).

Data set [1] deals with T1, NLRP3 (Homo sapiens, UniProt Q96P20). In words: Inhibition curves (IC50) of canonical NLRP3 activation in healthy human whole blood, IL-1β release. Format: cell-based. To be noted: LPS+1 mM ATP canonical activation model.
Experimental: 10 mL of human whole blood was collected intravenously aseptically, and plated into a 96-well plate, with 198 µL per well. Then, 2 µL of 100× gradient dilutions of the example compounds at specified concentrations were added, immediately followed by the addition of 10 µL of 21 µg/mL LPS gradient dilution. 3 h later, nigericin with a working concentration of 5 µM or 1 mM ATP was added. After stimulation for 1 h, the whole blood was collected and centrifuged to collect the supernatant. IL-1β in the sample supernatant was detected by ELISA method.
Experimental groups: a negative control group, an LPS-alone incubation control group, an LPS+Nig/ATP positive control group, and a 1 µM example compound experimental group.
10 mL of human whole blood was collected intravenously aseptically. The anticoagulant heparin sodium was added preemptively into a 50 mL centrifuge tube. The collected whole blood was directly plated in a 96-well plate, with 198 µL per well. […] IL-1β in the sample supernatant was detected by ELISA method.
Therefore, the relative change in the amount of IL-1β release may directly reflect NLRP3 inhibitory effect. The inhibitory effect of the compounds varies with different concentrations, and based on this, an inhibition curve can be constructed, and the inhibitory effect of the compounds were assessed by IC50.
Data set [2] in a line: Mouse pharmacokinetics after intravenous administration (plasma and brain, LC-MS). To be noted: C57 mice, intravenous 5 mg/kg. Type of data set: in vivo. As for the experimental part:
C57 mice were administered intravenously, at a dosage concentration of 5 mg/kg in each group. Retro-orbital blood collection was performed on the mice at 1 min, 30 min, 1 h, and 2 h post-dosing. The collected blood was centrifuged at 3000 rpm for 10 min at 4 °C to obtain plasma. Acetonitrile was added at a 1:3 volume ratio of plasma: acetonitrile to precipitate proteins. After centrifugation, the supernatant was collected and filtered. The concentration of the compound was detected using LC-MS (Agilent 1260-G6125, SIM mode). In addition, 2 h after drug injection, the mice were subjected to cardiac perfusion and then their brains were harvested. Following tissue homogenization and centrifugation, the supernatant was collected. Acetonitrile was added at a 1:3 volume ratio of supernatant: acetonitrile to precipitate proteins. After centrifugation, the supernatant was collected and filtered. The concentration of the compound was detected using LC-MS (Agilent 1260-G6125, SIM mode).
Experimental groups: a vehicle control group, and a dosing group.

Data set [3] deals with T1, NLRP3. As to the kind of experiment: Inhibition of canonical NLRP3 activation (LPS+Nig) in PMA-differentiated THP-1 cells, IL-1β release, single concentration. To be noted: 1 µM compound, FIG. 6 legend.
Experimental: THP-1 cells were plated in a 96-well plate at a density of 1.0×10^6 cells/mL, with 100 µL per well. Subsequently, PMA-induced differentiation and cell resting were performed, followed by activation of NLRP3 by LPS+Nig.
Experimental groups: a negative control group, an LPS-alone incubation control group, an LPS+Nig positive control group, and a 1 µM example compound experimental group.
100 ng/mL PMA was added at the same time as THP-1 cells were plated. After incubation for 24 h, the cells were washed three times with PBS, and then the culture medium was changed and the cells were allowed to rest for 24 h. Then the culture medium was completely replaced with medium containing 1 µg/mL LPS. The cells were incubated overnight. On the next day, the wells to which LPS was added completely received culture medium, and then the wells were incubated with specified example compounds for 1 h.
In this experimental example, effectively inhibiting IL-1β release means that the release amount in each group is reduced by 50% or more compared with that of the positive control.
Data set [4] deals with T2, NLRP3 (Mus musculus, UniProt Q8R4B8). As to the kind of experiment: Inhibition of canonical NLRP3 activation (LPS+ATP/Nig) in J774A.1 cells, IL-1β release by ELISA, single concentration. Type of data set: cell-based. More on the design: The mouse macrophage cell line J774A.1 was used, and LPS was used as the first signal; host or cells: J774A.1 mouse monocyte-macrophage cell line. To be noted: J774.A1, 1 µM compound, LPS + 5 mM ATP or 10 µM Nig, compared with the positive control, read-out: inhibition of IL-1β release. As for the experimental part: J774A.1 cells were plated in a 48-well plate at a density of 1.0×10^6 cells/mL, with 300 µL per well. Subsequently, NLRP3 was activated using LPS+5 mM ATP (adenosine triphosphate) or 10 µM Nig (nigericin). […] ATP was purchased from Sigma, Cat. No.: L2654. Nig was purchased from Shanghai Yuanye Bio-Technology Co., Ltd., Cat. No.: S45490.
T2 sequence (Q8R4B8 whole entry): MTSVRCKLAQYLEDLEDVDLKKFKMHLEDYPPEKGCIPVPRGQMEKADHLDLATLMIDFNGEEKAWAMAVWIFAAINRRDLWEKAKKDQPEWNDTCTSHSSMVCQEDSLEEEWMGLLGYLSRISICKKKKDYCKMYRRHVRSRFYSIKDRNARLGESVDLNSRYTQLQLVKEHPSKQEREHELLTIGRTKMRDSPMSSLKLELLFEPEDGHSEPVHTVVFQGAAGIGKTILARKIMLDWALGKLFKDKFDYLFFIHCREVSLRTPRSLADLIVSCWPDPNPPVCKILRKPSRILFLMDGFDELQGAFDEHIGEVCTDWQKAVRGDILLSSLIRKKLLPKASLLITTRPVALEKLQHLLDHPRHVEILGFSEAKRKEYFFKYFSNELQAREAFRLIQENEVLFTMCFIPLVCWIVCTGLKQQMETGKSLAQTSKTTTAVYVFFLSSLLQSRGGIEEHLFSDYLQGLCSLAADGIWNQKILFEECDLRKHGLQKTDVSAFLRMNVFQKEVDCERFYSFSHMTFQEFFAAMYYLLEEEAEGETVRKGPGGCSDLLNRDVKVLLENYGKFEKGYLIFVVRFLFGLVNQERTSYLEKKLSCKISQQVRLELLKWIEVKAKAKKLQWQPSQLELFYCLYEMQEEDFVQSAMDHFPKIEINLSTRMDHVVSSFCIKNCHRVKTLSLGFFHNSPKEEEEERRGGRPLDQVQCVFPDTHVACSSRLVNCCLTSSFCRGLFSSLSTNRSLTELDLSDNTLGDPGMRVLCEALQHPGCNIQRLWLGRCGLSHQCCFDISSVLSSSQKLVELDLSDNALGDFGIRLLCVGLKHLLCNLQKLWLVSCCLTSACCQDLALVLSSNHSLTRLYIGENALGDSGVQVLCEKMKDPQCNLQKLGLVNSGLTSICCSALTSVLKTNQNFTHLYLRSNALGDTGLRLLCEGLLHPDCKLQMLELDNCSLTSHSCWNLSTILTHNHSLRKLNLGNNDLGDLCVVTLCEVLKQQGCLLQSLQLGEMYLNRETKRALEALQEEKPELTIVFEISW
Experimental groups: a negative control group, an LPS-alone incubation control group, an LPS+ATP or +Nig positive control group, and an example compound experimental group.
After the plated J774A.1 cells adhering to the plate, the culture medium was replaced. For all the groups except the negative control group, the culture medium was completely replaced with cell culture medium containing 1 µg/mL LPS. The negative control group received cell culture medium. Then, all the groups were incubated overnight. 18 h later, the culture medium was replaced again. The culture medium of the example compound experimental group was completely replaced with cell culture medium containing the compounds; while the negative control group, the LPS-alone incubation control group, and the LPS+ATP/Nig positive control group received cell culture medium. 1 h later, the culture mediums of the LPS+ATP/Nig positive control group and the example compound experimental group were completely replaced with cell culture medium containing 5 mM ATP or 10 µM Nig. 1 h later, the cell supernatants were collected for IL-1β detection.
Therefore, the relative change in the amount of IL-1β release may directly reflect NLRP3 inhibitory effect.
Background: ELISA stands for enzyme-linked immunosorbent assay.

The target in data set [5] is T2, NLRP3. In words: Inhibition curves (IC50) of canonical NLRP3 activation in J774A.1 cells, IL-1β release. Type of data set: cell-based. More on the design: The mouse macrophage cell line J774A.1 was used, and LPS was used as the first signal; host or cells: J774A.1 mouse monocyte-macrophage cell line. To be noted: J774A.1 cell LPS+Nig activation model. The protocol:
J774A.1 cells were plated in a 48-well plate at a density of 1.0×10^6 cells/mL, with 300 µL per well. Subsequently, NLRP3 was activated by LPS+ATP or LPS+Nig. […] ATP was purchased from Sigma, Cat. No.: L2654. Nig was purchased from Shanghai Yuanye Bio-Technology Co., Ltd., Cat. No.: S45490.
Experimental groups: a negative control group, an LPS-alone incubation control group, an LPS+ATP/Nig positive control group, and an example compound experimental group with different concentrations.
After the plated J774A.1 cells adhering to the plate, the culture medium was replaced. For all the groups except the negative control group, the culture medium was completely replaced with cell culture medium containing 1 µg/mL LPS. The negative control group received cell culture medium. Then, all the groups were incubated overnight. 18 h later, the culture medium was replaced again. The culture medium of the example compound experimental group was completely replaced with culture medium containing different concentrations of compounds; while the negative control group, the LPS-alone incubation control group, and the LPS+ATP/Nig positive control group received cell culture medium. 1 h later, the culture mediums of the LPS+ATP/Nig positive control group and the example compound experimental group with different concentrations were completely replaced with cell culture medium containing 5 mM ATP or 10 µM Nig. 1 h later, the cell supernatants were collected for IL-1β detection.
Therefore, the relative change in the amount of IL-1β release may directly reflect NLRP3 inhibitory effect. The inhibitory effect of the compounds varies with different concentrations, and based on this, an inhibition curve can be constructed, and the inhibitory effects of the compounds were assessed by IC50.

Molecules are shown by their SMILES.

T1 sequence (Q96P20 whole entry): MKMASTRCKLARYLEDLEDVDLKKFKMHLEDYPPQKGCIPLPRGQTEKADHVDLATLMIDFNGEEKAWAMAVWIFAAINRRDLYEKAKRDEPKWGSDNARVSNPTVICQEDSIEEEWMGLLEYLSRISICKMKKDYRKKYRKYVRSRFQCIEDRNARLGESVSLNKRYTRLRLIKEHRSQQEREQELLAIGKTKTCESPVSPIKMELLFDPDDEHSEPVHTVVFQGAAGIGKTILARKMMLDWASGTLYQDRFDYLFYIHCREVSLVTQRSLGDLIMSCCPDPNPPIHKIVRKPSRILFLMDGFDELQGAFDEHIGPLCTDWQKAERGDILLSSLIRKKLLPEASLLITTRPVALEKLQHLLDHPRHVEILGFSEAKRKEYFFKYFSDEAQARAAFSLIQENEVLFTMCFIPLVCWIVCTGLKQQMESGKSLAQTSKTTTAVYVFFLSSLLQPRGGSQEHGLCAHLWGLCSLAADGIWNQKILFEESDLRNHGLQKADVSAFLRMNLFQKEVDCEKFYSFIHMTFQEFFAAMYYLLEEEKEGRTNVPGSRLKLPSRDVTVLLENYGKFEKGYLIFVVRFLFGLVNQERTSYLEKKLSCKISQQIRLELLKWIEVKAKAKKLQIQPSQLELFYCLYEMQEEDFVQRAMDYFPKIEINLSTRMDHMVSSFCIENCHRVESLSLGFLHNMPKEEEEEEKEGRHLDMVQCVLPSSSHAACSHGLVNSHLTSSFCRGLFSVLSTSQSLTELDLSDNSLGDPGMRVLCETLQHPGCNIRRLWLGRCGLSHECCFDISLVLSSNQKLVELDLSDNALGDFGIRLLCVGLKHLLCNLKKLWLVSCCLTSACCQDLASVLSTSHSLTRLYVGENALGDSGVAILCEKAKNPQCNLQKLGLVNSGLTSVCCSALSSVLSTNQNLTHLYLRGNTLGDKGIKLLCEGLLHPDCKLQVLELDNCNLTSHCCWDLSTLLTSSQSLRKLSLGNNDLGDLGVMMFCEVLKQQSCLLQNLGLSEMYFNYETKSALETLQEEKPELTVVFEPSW

The IC50 is the concentration needed to halve the response being measured. Low readings indicate inhibition by little substance, high ones a need for much substance. Usually half-life stands for how long it takes for the measured level to halve. A higher half-life goes with slow decline. A word on the AUC: it is the area under the concentration-time curve, a measure of exposure. Broadly, the inhibition is how much of the control response was suppressed. With `CN(C)Cc1cccc(S(=O)(=O)NC(=O)Nc2c3c(cc4c2CCC4)CCC3)c1O` [Example 27, 3-((dimethylamino)methyl)-N-((1,2,3,5,6,7-hexahydro-s-indacen-4-yl)carbamoyl)-2-hydroxybenzenesulfonamide], the values for the IC50 on NLRP3 [1] and on NLRP3 [5] were 55.8 µM and 0.0796 µM, respectively. In addition, the concentration at 120 min in data set [2] (brain after cardiac perfusion, read-out: brain drug concentration at 120 min) amounted to 96 ng/mL. In data set [2] (plasma), this compound returned a half-life of 2.88 h. In addition, the AUC in data set [2] (plasma, read-out: area under the curve (AUC) from 1 to 120 min) was determined as 47300 ng·h/mL. At NLRP3 [3], the “reduction in release amount compared with that of the positive control minus the LPS-alone control” value is at least 75%. In addition, the inhibition at 1 µM on NLRP3 [4] was above 80%.
